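Cells were grown in 96-well plates and exposed to each compound for 48 hours at five concentrations; endpoints were interpolated linearly between bracketing concentrations, or set to the highest concentration if not reached. GI50 = concentration required for 50% inhibition of growth.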 Activity calls are given as the source filed them. Cut-off read from the data, not from the text of the source: active = GI50 up to about 1.1 µM and inactive = higher.
Experiments:
Assay in all cases: inhibition of tumour cell growth, NCI panel, 48 h
SK-MEL-28 = tested on: SK-MEL-28
LXFL 529 = tested on: LXFL 529
IGROV-1 = tested on: IGROV-1
HCT-15 = tested on: HCT-15
K562 = tested on: K562
COLO 205 = tested on: COLO 205
Malme-3M = tested on: Malme-3M
OVCAR-5 = tested on: OVCAR-5
SNB-75 = tested on: SNB-75
RPMI-8226 = tested on: RPMI-8226
NCI-H522 = tested on: NCI-H522
SNB-19 = tested on: SNB-19
SK-OV-3 = tested on: SK-OV-3
HOP-62 = tested on: HOP-62
EKVX = tested on: EKVX
CCRF-CEM = tested on: CCRF-CEM
HCT-116 = tested on: HCT-116
RXF 393 = tested on: RXF 393
Hs-578T = tested on: Hs-578T
BT-549 = tested on: BT-549

| Compound | GI50 (SK-MEL-28) | GI50 (LXFL 529) | GI50 (IGROV-1) | GI50 (HCT-15) [µM] | GI50 (K562) | GI50 (COLO 205) | GI50 (Malme-3M) | GI50 (OVCAR-5) | GI50 (SNB-75) | GI50 (RPMI-8226) | GI50 (NCI-H522) | GI50 (SNB-19) | GI50 (SK-OV-3) | GI50 (HOP-62) | GI50 (EKVX) | GI50 (CCRF-CEM) | GI50 (HCT-116) | GI50 (RXF 393) | GI50 (Hs-578T) | GI50 (BT-549) |
| --- | --- | --- | --- | --- | --- | --- | --- | --- | --- | --- | --- | --- | --- | --- | --- | --- | --- | --- | --- | --- |
| O=C(CC1C(=O)Nc2ccccc2[S+]1[O-])Nc1ccc(Cl)cc1 (configuration not stated) | > 100 µM (inactive) | 91.8 µM (inactive) | 41.3 µM (inactive) | > 100 | > 100 µM (inactive) | > 100 µM (inactive) | 98.2 µM (inactive) | > 100 µM (inactive) | 29.4 µM (inactive) | > 100 µM (inactive) | > 100 µM (inactive) | 93.3 µM (inactive) | 30.1 µM (inactive) | 33.7 µM (inactive) |  |  |  |  |  |  |
| Cc1ccc2nc3c(C)cc(=O)cc-3sc2c1 | 25.9 µM (inactive) | 17.9 µM (inactive) | 31.8 µM (inactive) | 16 | 12.6 µM (inactive) | 27.6 µM (inactive) | 27.3 µM (inactive) | 27.9 µM (inactive) | 32.7 µM (inactive) |  | 17.8 µM (inactive) | 38.1 µM (inactive) | 59.6 µM (inactive) | 27.5 µM (inactive) | 28.2 µM (inactive) | 10.5 µM (inactive) | 17.3 µM (inactive) |  |  |  |
| CC1(C)CC(=O)c2c(nc(SSc3nc4c(c(-c5ccccc5)c3C#N)C(=O)CC(C)(C)C4)c(C#N)c2-c2ccccc2)C1 | > 10 µM (inactive) |  | > 10 µM (inactive) | > 10 | > 10 µM (inactive) | > 10 µM (inactive) | > 10 µM (inactive) | > 10 µM (inactive) | > 10 µM (inactive) | > 10 µM (inactive) | > 10 µM (inactive) | > 10 µM (inactive) | > 10 µM (inactive) | > 10 µM (inactive) | > 10 µM (inactive) | > 10 µM (inactive) | > 10 µM (inactive) | > 10 µM (inactive) | > 10 µM (inactive) | > 10 µM (inactive) |
| COC(=O)NC(=O)c1cn(C2OC(CO)C(O)C2O)c(=O)[nH]c1=O (configuration not stated) | > 100 µM (inactive) | > 100 µM (inactive) | > 100 µM (inactive) | > 100 | > 100 µM (inactive) | > 100 µM (inactive) | > 100 µM (inactive) | > 100 µM (inactive) | > 100 µM (inactive) | > 100 µM (inactive) | > 100 µM (inactive) | > 100 µM (inactive) | > 100 µM (inactive) | > 100 µM (inactive) |  |  | > 100 µM (inactive) |  |  |  |
| O=C1NC(Nc2ccccc2)=N/C1=C\c1c(Cl)cccc1Cl | 30.5 µM (inactive) |  | 17.8 µM (inactive) | 49.8 | 21 µM (inactive) | 31.3 µM (inactive) | 22.7 µM (inactive) | 29 µM (inactive) | 18.9 µM (inactive) | 33.5 µM (inactive) | 53.3 µM (inactive) | 25 µM (inactive) | 21.6 µM (inactive) | 28.2 µM (inactive) | 20.6 µM (inactive) | 14.3 µM (inactive) | 27.4 µM (inactive) | 17.8 µM (inactive) | 25.8 µM (inactive) | > 100 µM (inactive) |
| C=CCSSCC=C | > 74.8 µM (inactive) |  | > 71.6 µM (inactive) | 38.5 | 5.5 µM (inactive) | 41.6 µM (inactive) | 40.9 µM (inactive) | 51.6 µM (inactive) | 60.8 µM (inactive) | 4.05 µM (inactive) | 15.9 µM (inactive) | > 100 µM (inactive) | 90.4 µM (inactive) | > 71.9 µM (inactive) | > 100 µM (inactive) | 1.98 µM (inactive) | 13.6 µM (inactive) | 32.3 µM (inactive) | 27.9 µM (inactive) | 42.3 µM (inactive) |
| CCOC(=O)C(NC(=O)c1ccccc1)(N1CCN(c2cc3c(cc2F)c(=O)c(C(=O)O)cn3CC)CC1)C(F)(F)F (configuration not stated) | < 0.01 µM (active) |  | 38.4 µM (inactive) | 24.4 | 31.8 µM (inactive) | 17.1 µM (inactive) | 22 µM (inactive) | 21.1 µM (inactive) | 26.1 µM (inactive) | 25.2 µM (inactive) | 16.7 µM (inactive) | 29.9 µM (inactive) | 34.3 µM (inactive) | 31.2 µM (inactive) | 17.1 µM (inactive) | 21.8 µM (inactive) | 33.9 µM (inactive) | 33.8 µM (inactive) | 43.3 µM (inactive) | 35.9 µM (inactive) |
| CSc1nc(Cl)c2c(n1)Sc1nc3cc4c(cc3n1C2O)OCO4 (configuration not stated) | 0.895 µM (active) |  | 0.392 µM (active) | 0.31 | 0.29 µM (active) | 0.247 µM (active) | 0.516 µM (active) | 0.92 µM (active) | 3.75 µM (inactive) | 0.385 µM (active) | 0.26 µM (active) | 1.57 µM (inactive) | 1.72 µM (inactive) | 0.701 µM (active) | 5.75 µM (inactive) | 0.269 µM (active) | 0.0863 µM (active) | 1.96 µM (inactive) | 1.05 µM (active) | 0.452 µM (active) |
| N#Cc1c(-c2ccccc2)c(C#N)c(=O)n(NS(=O)(=O)c2ccccc2)c1O | > 100 µM (inactive) |  | > 100 µM (inactive) | > 100 | > 100 µM (inactive) | > 100 µM (inactive) | > 100 µM (inactive) | > 100 µM (inactive) | > 100 µM (inactive) | > 100 µM (inactive) | > 100 µM (inactive) | > 100 µM (inactive) | > 100 µM (inactive) | > 100 µM (inactive) | > 100 µM (inactive) | > 100 µM (inactive) | > 100 µM (inactive) | > 100 µM (inactive) | > 100 µM (inactive) | > 100 µM (inactive) |
| Cc1cc2nc(-c3cc(C(C)(C)C)c(O)c(C(C)(C)C)c3)[nH]c2cc1C | > 100 µM (inactive) |  | 5.08 µM (inactive) | 6.55 | 3.18 µM (inactive) | 2.9 µM (inactive) | > 100 µM (inactive) | > 100 µM (inactive) | > 100 µM (inactive) | 12.8 µM (inactive) | > 100 µM (inactive) | 11.6 µM (inactive) | > 100 µM (inactive) | > 100 µM (inactive) | > 39.1 µM (inactive) | 1.39 µM (inactive) | 1.79 µM (inactive) | > 100 µM (inactive) | 17.2 µM (inactive) | > 100 µM (inactive) |
| Cc1c2c(OCCCCN3CCN(c4ncccn4)CC3)nn(C)c(=O)c2c(C)n1-c1ccccc1 | 18.4 µM (inactive) |  | 17.8 µM (inactive) | 17.8 | 30.8 µM (inactive) | 19 µM (inactive) | 20.2 µM (inactive) | 20.5 µM (inactive) | 19.5 µM (inactive) | 20.2 µM (inactive) | 18.4 µM (inactive) | 19 µM (inactive) | 18.7 µM (inactive) | 25.7 µM (inactive) | 19.1 µM (inactive) | 31.1 µM (inactive) | 16.9 µM (inactive) | 18.6 µM (inactive) | 26.2 µM (inactive) | 19.3 µM (inactive) |
| Cc1csc(-n2nc(C)cc2C)n1 | > 100 µM (inactive) |  | > 100 µM (inactive) | > 100 | > 100 µM (inactive) | > 100 µM (inactive) | > 100 µM (inactive) | > 100 µM (inactive) | > 100 µM (inactive) | > 100 µM (inactive) | > 100 µM (inactive) | > 100 µM (inactive) | > 100 µM (inactive) | > 100 µM (inactive) | > 100 µM (inactive) | > 100 µM (inactive) | > 100 µM (inactive) | > 100 µM (inactive) | > 100 µM (inactive) | > 100 µM (inactive) |
| C=C1C(=O)CCC1C(=O)O (configuration not stated) | > 100 µM (inactive) |  | > 100 µM (inactive) | > 100 | > 100 µM (inactive) | > 100 µM (inactive) | > 100 µM (inactive) | > 100 µM (inactive) | 11.8 µM (inactive) | > 100 µM (inactive) | > 100 µM (inactive) | > 100 µM (inactive) | > 100 µM (inactive) | > 100 µM (inactive) | > 100 µM (inactive) | > 100 µM (inactive) | > 100 µM (inactive) | > 100 µM (inactive) | > 100 µM (inactive) | > 100 µM (inactive) |
| CCOC(=S)SCC(=O)O | > 100 µM (inactive) |  | > 100 µM (inactive) | > 100 | > 100 µM (inactive) | > 100 µM (inactive) | > 100 µM (inactive) | > 100 µM (inactive) | > 100 µM (inactive) | > 100 µM (inactive) | > 100 µM (inactive) | > 100 µM (inactive) | > 100 µM (inactive) | > 100 µM (inactive) | > 100 µM (inactive) | 1 µM (active) | > 100 µM (inactive) | > 100 µM (inactive) | > 100 µM (inactive) | > 100 µM (inactive) |
| CC(=O)ON(OC(C)=O)c1ccc(C)cc1 | > 100 µM (inactive) |  | > 100 µM (inactive) | > 100 | > 100 µM (inactive) | > 100 µM (inactive) | > 100 µM (inactive) | > 100 µM (inactive) | > 100 µM (inactive) | > 100 µM (inactive) | > 100 µM (inactive) | > 100 µM (inactive) | > 100 µM (inactive) | > 100 µM (inactive) | > 100 µM (inactive) | < 0.01 µM (active) | > 100 µM (inactive) | > 100 µM (inactive) | > 100 µM (inactive) | > 100 µM (inactive) |
| Cc1cc(NS(=O)(=O)c2ccc(/N=N/c3c(O)c(C(=O)O)cc4ccccc34)cc2)nc(C)n1 | > 100 µM (inactive) |  | > 100 µM (inactive) | > 100 | > 100 µM (inactive) | > 100 µM (inactive) | > 100 µM (inactive) | > 100 µM (inactive) | > 100 µM (inactive) | > 100 µM (inactive) | > 100 µM (inactive) | > 100 µM (inactive) | > 100 µM (inactive) | > 100 µM (inactive) | > 100 µM (inactive) | > 100 µM (inactive) | > 100 µM (inactive) | > 100 µM (inactive) | > 100 µM (inactive) | > 100 µM (inactive) |

Source: ChEMBL document CHEMBL1201862, “PubChem BioAssay data set” (2004)
